According to ChEMBL document CHEMBL1212765, “An A643T mutation in the transcription factor Upc2p causes constitutive ERG11 upregulation and increased fluconazole resistance in Candida albicans” (2010):
Converted amounts (≈) assume the structure as drawn. The source made the active and inactive calls. No cut-off for these calls is given here.

Assays:
[1] = tested on: Candida albicans; assay: Antimicrobial activity against fluconazole susceptible Candida albicans isolate 1002 expressing low levels of ERG11 and UPC2 mRNA by microdilution method; type: functional
[2] = tested on: Candida albicans; assay: Antimicrobial activity against Candida albicans isolate SC5314 expressing UPC2 G648D/UPC2 A643T double mutant alleles by microdilution method relative wild type; type: functional, organism-based
[3] = tested on: Candida albicans; assay: Antimicrobial activity against fluconazole resistant Candida albicans isolate 1619 expressing high levels of ERG11 and UPC2 mRNA by microdilution method; type: functional
[4] = tested on: Candida albicans; assay: Antimicrobial activity against Candida albicans isolate SC5314 expressing UPC2/UPC2 A643T mutant allele by microdilution method relative wild type; type: functional, organism-based
[5] = tested on: Candida albicans; assay: Antimicrobial activity against fluconazole susceptible Candida albicans isolate 945 expressing low levels of ERG11 and UPC2 mRNA by microdilution method; type: functional
[6] = tested on: Candida albicans; assay: Antimicrobial activity against fluconazole susceptible Candida albicans isolate 580 expressing low levels of ERG11 and UPC2 mRNA by microdilution method; type: functional
[7] = tested on: Candida albicans; assay: Antimicrobial activity against Candida albicans isolate SC5314 expressing UPC2/UPC2 G648D mutant allele by microdilution method relative wild type; type: functional
[8] = tested on: Candida albicans; assay: Antimicrobial activity against fluconazole susceptible Candida albicans isolate 5052 expressing low levels of ERG11 and UPC2 mRNA by microdilution method; type: functional
[9] = tested on: Candida albicans; assay: Antimicrobial activity against Candida albicans isolate SC5314 expressing UPC2 G648D/UPC2 G648D double mutant alleles by microdilution method relative wild type; type: functional
[10] = tested on: Candida albicans; assay: Antimicrobial activity against fluconazole resistant Candida albicans isolate 3795 expressing high levels of ERG11 and UPC2 mRNA by microdilution method; type: functional
[11] = tested on: Candida albicans; assay: Antimicrobial activity against fluconazole susceptible Candida albicans 5054 expressing low levels of ERG11 and UPC2 mRNA by microdilution method; type: functional
[12] = tested on: Candida albicans; assay: Antimicrobial activity against fluconazole resistant Candida albicans isolate 2440 expressing high levels of ERG11 and UPC2 mRNA by microdilution method; type: functional

## OC(Cn1cncn1)(Cn1cncn1)c1ccc(F)cc1F [FLUCONAZOLE]
[1]
  MIC: 0.25 µg/mL (≈ 0.816 µM)
[2]
  MIC: inactive
[3]
  MIC: 32 µg/mL (≈ 104 µM)
[4]
  MIC: inactive
[5]
  MIC: 4 µg/mL (≈ 13.1 µM)
[6]
  MIC: 1 µg/mL (≈ 3.27 µM)
[7]
  Ratio: 4
[8]
  MIC: 32 µg/mL (≈ 104 µM)
[9]
  Ratio: 8
[10]
  MIC: > 64 µg/mL
[11]
  MIC: 4 µg/mL (≈ 13.1 µM)
[12]
  MIC: 32 µg/mL (≈ 104 µM)
